Measured values from patent publication US7994133B2, “Isozyme-specific antagonists of protein kinase C” (The Board of Trustees of the Leland Stanford Junior …, priority 2003, dated 2011).

Key:
Type in all cases: cell-based
[1] = test system: neonatal rat cardiac myocytes; experiment: Cardiac myocyte contraction rate measurement; conditions: for effect on ΨεRACK effect on contraction (negative chronotropy): PMA and ΨεRACK, prior application of the inhibitor; for effect on the decrease in contraction rate induced by PMA: 1 nM or 5 nM PMA about 20 minutes after peptide; for agonistic effect on contraction rate of cardiac myocytes: prior to PMA
Experimental: Primary cardiac myocyte cell cultures (90-95% pure) were prepared from newborn rats as previously described (Gray, M. O., et al., J. Biol. Chem. 272:30945-30951, (1997); Disatnik, M.-H., et al., Exp. Cell Res. 210:287-297, (1994)). Peptides (100 nM-1 μM applied concentration) were introduced into cells by transient permeabilization (Johnson, J. A., et al., Circ. Res. 79:1086-1099, (1996)) with sham permeabilization as control, or as carrier-peptide conjugates (30 nM-1 μM) (Derossi, D. et al., surpa (1994); Derossi, D. et al., surpa (1996); Théodore, L., et al., surpa (1995)) with a carrier-carrier dimer as a control.
Cells were treated for 10-20 minutes in the absence or presence of peptide followed by an additional incubation with or without 1 nM phorbol 12-myristate 13-acetate (PMA) for 10 or 20 minutes. Alternatively, cells were incubated for 10 minutes with 100 nM PMA (positive control) or in the absence of PMA.
Measurements of cardiac myocyte contraction rate were carried out essentially as previously described (Johnson, J. A., et al., J. Biol. Chem. 271:24962-24966, (1996). In brief, cardiomyocytes cultured on 35 mm plates were placed in a temperature-regulation apparatus at 37° C. (Medical Systems Corp.) and positioned on the stage of an inverted microscope (Carl Zeiss Inc.). The contraction rates of four cells in one microscopic field were determined every 2 minutes for 15 seconds each. The basal contraction rate (˜300 beats/minute) was stable over many hours.
Peptide SEQ ID Nos:3, 55 and 79 were introduced into cardiac myocyte cell cultures prepared from newborn rats by transient permeabilization, with sham permeabilization as control, or as carrier-peptide conjugates with a carrier-carrier dimer as control. The cells were treated for 10-20 minutes in the absence or presence of peptide followed by an additional incubation with or without phorbol 12-myristate 13-acetate (PMA) for 10 or 20 minutes. Alternatively, cells were incubated for 10 minutes with 100 nM PMA (positive control) or in the absence of PMA. The effect of the peptide and/or PMA was determined by measuring the contraction rate of the myocytes, as described in Example 1B.

[2] = test system: neonatal rat cardiac myocytes; experiment: Cardiac myocyte contraction rate measurement; conditions: 40 minutes after PMA addition, n=4, p<0.05; PMA alone versus with N-ΨεRACK
[3] = test system: rat cardiac myocytes; experiment: Simulated ischemia, cell damage by trypan blue exclusion; conditions: for effect on ΨεRACK-induced protection from ischemic damage: in combination with ΨεRACK; for effect on response to ischemia: peptide alone before simulated ischemia
Experimental: Cardiac myocytes were isolated from adult male rats as previously described (Chen et al., Proc. Natl. Acad. Sci., 96(22):12784 (1999)). Myocytes in incubation buffer were treated with a peptide or combination of peptides, prepared as described in Example 1, for 15 minutes. Myocytes were then pelleted at 1000 rpm for 1 minute in a degassed incubation buffer saturated with nitrogen and incubated at 37° C. for 3 hours to simulate ischemia. Cell damage was assessed after the 3 hours by trypan blue exclusion and percent cell with damage was determined as previously described (Chen et al., Proc. Natl. Acad. Sci., 96(22):12784 (1999)).

CCCCCCCCCCCCCC(=O)O[C@@H]1[C@@H](C)[C@@]2(O)[C@@H](C=C(CO)C[C@]3(O)C(=O)C(C)=C[C@@H]23)[C@@H]2C(C)(C)[C@]12OC(C)=O [PMA, phorbol 12-myristate 13-acetate, reference compound]
decrease from the basal contraction rate ([1]; PMA alone): 11±4% | decrease in contraction rate induced by 10 nM PMA [2]: 47±3%

COc1ccc2c(c[n+](C)c3c4cc5c(cc4ccc23)OCO5)c1OC [chelerythrine, reference compound]
effect on ΨεRACK effect on contraction (negative chronotropy) [1]: inhibited | effect on ΨεRACK-induced protection from ischemic damage [3]: reversed

HDAPIGYD (listed as Homo sapiens) [ΨεRACK, εPKC agonist peptide, εPKC amino acid residues 85-92]
effect on the decrease in contraction rate induced by PMA [1]: reduced the decrease in contraction rate | decrease in contraction rate from the basal rate ([1]; peptide alone, 20 minutes after peptide addition): 9±2% | decrease from the basal contraction rate ([1]; ΨεRACK together with PMA): 44±6% | reduction of ischemia-induced cell damage ([3]; peptide 15 minutes before 3 hours simulated ischemia): 60%

HAAPIGYD (Alternative pseudo-epsilon RACK peptide) [A-ΨεRACK]
agonistic effect on contraction rate of cardiac myocytes ([1]; peptide alone): not induced | effect on ΨεRACK-induced protection from ischemic damage [3]: did not | effect on response to ischemia [3]: no effect

EAVSLKPT (listed as Homo sapiens) [εV1-2, reference compound]
effect on ΨεRACK effect on contraction (negative chronotropy) [1]: abolished | effect on ΨεRACK-induced protection from ischemic damage [3]: reversed

HNAPIGYD (A modification of SEQ ID NO3) [N-ΨεRACK, εPKC antagonist peptide derived from ΨεRACK, D substituted by N]
effect on the decrease in contraction rate induced by PMA [1]: able to reduce the decrease in contraction rate | decrease in contraction rate ([1]; cells treated with N-ΨεRACK, then ΨεRACK at 15 minutes and 1 nM PMA at 30 minutes): < 10% | agonistic effect on contraction rate of cardiac myocytes ([1]; peptide alone): no agonistic effect | effect on ΨεRACK-induced protection from ischemic damage [3]: abolished | effect on response to ischemia [3]: no effect | decrease in contraction rate induced by 10 nM PMA [2]: 24±5%
